These results are taken from patent publication US9018253B2, “Phenylcarbamate compound and muscle relaxant containing the same” (Bio-Pharm Solutions Co., Ltd., priority 2010, dated 2015).

In general, ED50 refers to the midpoint of the dose-response relation.

Marks after values point to notes of the source that are not given here.

Common to all, as to type: in vivo
For test [1], the system named is male mice (ICR). Put plainly: Residence time on a rotarod rotating at a fixed speed (Fixed 15 r.p.m. Rotarod, muscle relaxation). The conditions noted are these: intraperitoneal (10 ul/g, bw), at time of maximum effect, 50% vs vehicle only (100%), 15 rpm, max 10 min. How it is done: (§1) For testing, male mice (ICR) were purchased from ORIENT BIO INC. (Korea), divided into several groups with 6 mice in each group, and were adapted for 4-5 days. The mice having the weight ranging from 19 g to 26 g were employed for the test. The pharmacological effect of the test compounds on muscle relaxation was evaluated by Rotarod test, grip strength test, and muscular force (wire hang) test. All mice were adapted to the test environment at one hour before starting the tests. The pharmacological effects of all the test compounds were evaluated by administration through peritoneal cavity of the mice (10 ul/g, bw).
All the mice to be tested were preliminarily trained for 5 minutes on a rod rotating at the rate of 15 revolutions per a minute. The mice that could not remain on the rod without falling off therefrom for a minimum of 2 minutes were excluded from this testing. After the training, all the mice were allowed to rest for 45-60 minutes. Before the administration of the test compounds, the mice were subjected to a further training for one minute on the rod rotating under the same condition, where the mice falling off from the rod were excluded from this experimentation. […] In case a mouse stays on the rod until the test is finished, the time was recorded as 10 minutes. As test time for evaluation, a maximum of 10 minutes was applied. This experimentation was conducted according to the method described in the reference, ‘Yasuda et al. (2005) Antipyretic, analgesic and muscle relaxant activities of Pueraria isoflavonoids and their metabolites from Pueraria lobata Ohwi—a traditional Chinese drug. Biol. Pharm. Bull. 28: 1224-1228’.
(§2) The obtained results are shown as mean±sem. The difference between the groups was statistically analyzed by ANOVA, and then, further examined by Dunnett's test or Bonferroni test. If p is less than 0.05, it was determined that the difference between the groups had statistical significance.
(§3) The results of muscle relaxation activity of the phenyl carbamate compounds measured in above Experimental Examples 1 to 4 are shown in following Table 3.
On the technique in general: Falling from the rotarod earlier than controls is read as motor impairment.

Test [2] has as its system male mice (ICR). Put plainly: Wire hang test (muscular force, muscle relaxation). The conditions noted are these: for ED50: Mus musculus, ip, intraperitoneal (10 ul/g, bw), at time of maximum effect, 50% vs vehicle only (100%), read-out: MR test ED50, IV = Wire hang; for IV = Wire hang, effect (%) compared to that of control treated with vehicle only: 100 mg/kg administered, intraperitoneal. How it is done: as §1
This experimentation was conducted using a metal wire of 30 cm in length, which was suspended between two pillars at a height of about 40 cm from the bottom covered with a soft pad. […] Each mouse was made to grip the wire using two forelimbs, and the elapse time before the mouse fell off from the wire to the pad on the bottom was recorded in seconds. Each mouse was given 5 opportunities for this test at an interval of 2 minutes period. The highest 3 records among the test opportunities were selected and the mean value was used as the test result. This experimentation was conducted according to the method described in the reference, ‘Jacqueline N. Crawley (1999) Behavioral phenotyping of transgenic and knockout mice: experimental design and evaluation of general health, sensory functions, motor abilities, and specific behavioral tests. Brain Res. 835: 18-26’.
as §2, §3

In test [3] the test system is male mice (ICR). Put plainly: Endurance time on a rotarod rotating at accelerated speed (Acc. Rotarod, muscle relaxation). To be noted: Mus musculus, ip, 5 min, intraperitoneal (10 ul/g, bw), at time of maximum effect, 50% of muscle relaxation activity vs vehicle only (100%), rod accelerated 4 to 40 rpm, max 5 min, read-out: MR test ED50, I = Acc. Rotarod. How it is done: as §1
At 24 hours before testing, the mice to be tested were preliminarily trained for 5 minutes on a rod rotating at the rate of 6 revolutions per a minute. The pharmacological effect on muscle relaxation of the test compounds were evaluated by observing the mice on a rod for 5 minutes, where the rod was accelerated from 4 to 40 revolutions per a minute during the test time. The endurance time that each mouse endures on the acceleratedly rotated rod without falling off from the rod was recorded. As test time for evaluation, a maximum of 5 minutes was applied. […] This experimentation was conducted according to the method described in the reference, ‘Monville et al. (2006) Comparison of incremental and accelerating protocol of the rotarod test for the assessment of motor deficits in the 6-OHDA model. J. Neurosci. Meth. 158: 219-223’.
as §2, §3

Test [4] has as its system male mice (ICR). The test is described as follows: Grip strength test (forelimbs, muscle relaxation). To be noted: for ED50: Mus musculus, ip, intraperitoneal (10 ul/g, bw), at time of maximum effect, 50% vs vehicle only (100%), read-out: MR test ED50, III = Grip strength. How it is done:
as §1
A grip strength test using the test animals' forelimbs was performed using an instrument equipped with triangle ring and designed so as to easily grip with the forelimbs of experimental animals, manufactured from Ugo Basile Inc. (Ugo Basile, Model 47106, Italy). The test was conducted before and after administration of the compounds to evaluate the effects thereof. […] The mouse was made to grip the rod with its forelimbs, and its tail was pulled, where the force at which the mouse detached from the rod was recorded. The instrument indicated the force in grams. All of the mice were given 3 opportunities for test, and the 3 highest values among the test opportunities were selected and the mean value was used as the test result. This experimentation was conducted according to the method described in the reference, ‘Nevins et al. (1993) Quantitative grip strength assessment as a means of evaluating muscle relaxation in mice. Psychopharmacol. 110: 92-96’.
as §2, §3

For `CC(OC(N)=O)C(O)c1ccccc1Cl` (racemic) [Compound 3, 1-(2-chlorophenyl)-1-hydroxypropyl-2-carbamate], the “MR test ED50, II = Fixed 15 r.p.m. Rotarod” value in the test on male mice (ICR) [1] is 47.7 mg/kg, bw.
Still for that read-out and setting: the value for `CNC(=O)OC(C)C(O)c1ccccc1Cl` (racemic) [Compound 29, 1-(2-chlorophenyl)-1-hydroxypropyl-2-N-methylcarbamate] was 41.0 mg/kg, bw.
The same measure, in the same setting: with `C[C@H](OC(N)=O)[C@@H](O)c1ccccc1Cl` [Compound 1, 1-(2-chlorophenyl)-(S)-1-hydroxypropyl-(S)-2-carbamate] the figure was 23.3 mg/kg, bw.
As to `C[C@@H](OC(N)=O)[C@H](O)c1ccccc1Cl` [Compound 2, 1-(2-chlorophenyl)-(R)-1-hydroxypropyl-(R)-2-carbamate], the “MR test ED50, II = Fixed 15 r.p.m. Rotarod” value in the test with male mice (ICR) [1] was 76.5 mg/kg, bw.
Turning to `C[C@H](OC(N)=O)[C@H](O)c1ccccc1Cl` [Compound 4, 1-(2-chlorophenyl)-(R)-1-hydroxypropyl-(S)-2-carbamate], the “MR test ED50, II = Fixed 15 r.p.m. Rotarod” value in the test on male mice (ICR) [1] is 65.0 mg/kg, bw. Also, the ED50 was 40 mg/kg in the test on male mice (ICR) [2], 69.3 mg/kg in the test with male mice (ICR) [3] and 124 mg/kg in the test on male mice (ICR) [4].
As for `C[C@@H](OC(N)=O)[C@@H](O)c1ccccc1Cl` [Compound 5, 1-(2-chlorophenyl)-(S)-1-hydroxypropyl-(R)-2-carbamate], in the test with male mice (ICR) [1], the “MR test ED50, II = Fixed 15 r.p.m. Rotarod” value is listed as 65.5 mg/kg, bw. Further, the ED50 is 52.5 mg/kg with male mice (ICR) [2], 66.9 mg/kg in the test on male mice (ICR) [3] and 95 mg/kg in the test on male mice (ICR) [4].
`CNC(=O)O[C@@H](C)[C@@H](O)c1ccccc1Cl` [Compound 15, 1-(2-chlorophenyl)-(S)-1-hydroxypropyl-(S)-2-N-methylcarbamate]: the “MR test ED50, II = Fixed 15 r.p.m. Rotarod” value in the test with male mice (ICR) [1] is 42.8 mg/kg, bw.
For `CCCNC(=O)O[C@@H](C)[C@@H](O)c1ccccc1Cl` [Compound 16, 1-(2-chlorophenyl)-(S)-1-hydroxypropyl-(S)-2-N-propylcarbamate], in the test on male mice (ICR) [1], the “MR test ED50, II = Fixed 15 r.p.m. Rotarod” value is 61.6 mg/kg, bw.
For the compound `CC(C)NC(=O)O[C@@H](C)[C@@H](O)c1ccccc1Cl` [Compound 17, 1-(2-chlorophenyl)-(S)-1-hydroxypropyl-(S)-2-N-isopropylcarbamate], in the test with male mice (ICR) [1], the “MR test ED50, II = Fixed 15 r.p.m. Rotarod” value is given as 66.4 mg/kg, bw.
Same read-out and setting: the value for `C[C@H](OC(=O)NC1CC1)[C@@H](O)c1ccccc1Cl` [Compound 18, 1-(2-chlorophenyl)-(S)-1-hydroxypropyl-(S)-2-N-cyclopropylcarbamate] was 61.2 mg/kg, bw; that for `CNC(=O)O[C@H](C)[C@H](O)c1ccccc1Cl` [Compound 22, 1-(2-chlorophenyl)-(R)-1-hydroxypropyl-(R)-2-N-methylcarbamate] was 25.1 mg/kg, bw.
Same read-out and setting: with `CC(C)NC(=O)O[C@H](C)[C@H](O)c1ccccc1Cl` [Compound 24, 1-(2-chlorophenyl)-(R)-1-hydroxypropyl-(R)-2-N-isopropylcarbamate] the figure was 44.3 mg/kg, bw.
For `C[C@@H](OC(=O)NC1CC1)[C@H](O)c1ccccc1Cl` [Compound 25, 1-(2-chlorophenyl)-(R)-1-hydroxypropyl-(R)-2-N-cyclopropylcarbamate], the “MR test ED50, II = Fixed 15 r.p.m. Rotarod” value with male mice (ICR) [1] is reported as 18.3 mg/kg, bw. In addition, the ED50 in the test with male mice (ICR) [2] worked out at 32.9 mg/kg; in the test on male mice (ICR) [3], 30 mg/kg; in the test on male mice (ICR) [4], 46.1 mg/kg.
Regarding `C[C@H](OC(N)=O)[C@@H](O)c1ccccc1F` [Compound 63, 1-(2-fluorophenyl)-(S)-1-hydroxypropyl-(S)-2-carbamate], in the test with male mice (ICR) [2], the “IV = Wire hang, effect (%) compared to that of control treated with vehicle only” value is reported as 100 ^a (84.2%).
As for `C[C@@H](OC(N)=O)[C@H](O)c1ccccc1F` [Compound 64, 1-(2-fluorophenyl)-(R)-1-hydroxypropyl-(R)-2-carbamate], the “IV = Wire hang, effect (%) compared to that of control treated with vehicle only” value with male mice (ICR) [2] is on record as 100 ^a (30.8%). For the same compound, the “III = Grip strength, effect (%) compared to that of control treated with vehicle only” value in the test with male mice (ICR) [4] (120 mg/kg administered, intraperitoneal) is 120 ^a (35.4%).
Turning to `C[C@H](OC(N)=O)[C@@H](O)c1ccccc1I` [Compound 65, 1-(2-iodophenyl)-(S)-1-hydroxypropyl-(S)-2-carbamate], the “MR test ED50, II = Fixed 15 r.p.m. Rotarod” value in the test on male mice (ICR) [1] is 28.0 mg/kg, bw.
On the same count and under the same terms, with `C[C@@H](OC(N)=O)[C@H](O)c1ccccc1I` [Compound 66, 1-(2-iodophenyl)-(R)-1-hydroxypropyl-(R)-2-carbamate] the figure was 67.9 mg/kg, bw; with `CC[C@H](OC(N)=O)[C@@H](O)c1ccccc1I` [Compound 67, 1-(2-iodophenyl)-(S)-1-hydroxybutyl-(S)-2-carbamate], 30.2 mg/kg, bw.
